Patent US11225480B2, “Malic enzyme inhibitors” (SUN PHARMA ADVANCED RESEARCH COMPANY LTD, priority 2019, dated 2022)

Each molecule was assayed against T1, human ME3 enzyme (Homo sapiens, UniProt Q16798) (assay: ME3 inhibition assay (diaphorase/resazurin coupled fluorescence)). Details: 10 μM compound concentration; read-out: Malic Enzyme 3 % inhibition (10 μM).
T1 sequence (Q16798 1-604): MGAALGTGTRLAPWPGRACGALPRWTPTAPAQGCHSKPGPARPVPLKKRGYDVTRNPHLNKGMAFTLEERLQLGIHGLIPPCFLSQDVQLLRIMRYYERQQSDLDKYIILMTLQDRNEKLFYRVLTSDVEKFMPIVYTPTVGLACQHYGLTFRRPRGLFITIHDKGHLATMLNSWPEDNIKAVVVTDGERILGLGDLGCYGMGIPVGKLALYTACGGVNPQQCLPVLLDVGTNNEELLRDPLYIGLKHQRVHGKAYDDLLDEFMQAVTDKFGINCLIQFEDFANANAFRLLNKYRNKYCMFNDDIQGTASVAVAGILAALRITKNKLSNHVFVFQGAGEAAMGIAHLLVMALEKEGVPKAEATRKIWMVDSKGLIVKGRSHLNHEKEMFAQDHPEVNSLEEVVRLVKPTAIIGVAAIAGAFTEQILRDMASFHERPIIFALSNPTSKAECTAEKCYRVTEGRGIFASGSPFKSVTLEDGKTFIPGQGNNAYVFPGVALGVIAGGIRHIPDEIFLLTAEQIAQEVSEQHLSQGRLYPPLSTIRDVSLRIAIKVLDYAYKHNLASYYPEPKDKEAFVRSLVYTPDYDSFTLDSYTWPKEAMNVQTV
Format: biochemical
Protocol: ME3 catalyzes the oxidative decarboxylation of malate to pyruvate with conversion of the co-factor β-NADP+ to NADPH. In the fluorescence assay, a coupled reaction is set up wherein an enzyme, Diaphorase, utilizes NADPH generated by ME3, to convert the dye resazurin to a fluorescent molecule resorufin.
The enzyme activity inhibition assay is set up in a 200 μL final reaction volume in a 96-well plate. As per the experimental design, 2 μL of the test compounds at 100× the desired concentration (10 μM) in DMSO were added to the respective wells with 178 μL of assay buffer (50 mM Tris-HCl pH 7.5, 10 mM MnCl2, 3 mM L-malate, 50 μM Resazurin and 0.025 mg/ml Diapharose). The 96-well plate was incubated on a plate shaker at room temperature for 15 minutes protected from light. The well contents were gently mixed by adding 10 μL of 20 nM human ME3 enzyme to the wells and the plate was incubated on a shaker at room temperature for 5 minutes protected from light. Suitable enzyme only and no enzyme controls were included in the experiment. The enzyme reaction was started by adding 10 μL of 1 mM D-NADP+. The reaction was gently mixed and the plate was initially left on a shaker at room temperature for ˜7 minutes protected from light. Later, the plate was incubated without shaking at room temperature for 3 hours. At the end of 3 hours, the fluorescence of the wells was measured at excitation 540 nm and emission 600 nm.
With COCCN1CCC(C(=O)N2CCN(c3ccc(O)cc3)CC2)CC1 [I.7, [4-(4-Hydroxy-phenyl)-piperazin-1-yl]-[1-(2-methoxy-ethyl)-piperidin-4-yl]-methanone] the inhibition at 10 µM was > 90%.
With O=C(c1n[nH]c2ccccc12)N1CCN(c2ccc(O)cc2)CC1 [I.8, [4-(4-Hydroxy-phenyl)-piperazin-1-yl]-(1H-indazol-3-yl)-methanone] the inhibition at 10 µM was > 90%.
In the case of COCCOc1ccc2[nH]cc(C(=O)N3CCN(c4ccc(O)cc4)CC3)c2c1 [I.10, [4-(4-Hydroxy-phenyl)-piperazin-1-yl]-[5-(2-methoxy-ethoxy)-1H-indol-3-yl]-methanone], the inhibition at 10 µM is reported as > 90%.
For CCCCOc1ccc(/C=C/C(=O)N2CCN(c3ccc(O)cc3)CC2)cc1 [I.12, 3-(4-Butoxy-phenyl)-1-[4-(4-hydroxy-phenyl)-piperazin-1-yl]-propenone], the inhibition at 10 µM was > 90%.
For CCCCOc1ccc(CCC(=O)N2CCN(c3ccc(O)cc3)CC2)cc1 [I.13, 3-(4-Butoxy-phenyl)-1-[4-(4-hydroxy-phenyl)-piperazin-1-yl]-propan-1-one], the inhibition at 10 µM was > 90%.
CCCCOc1ccc2[nH]cc(C(=O)N3CCN(c4ccc(O)cc4)CC3)c2c1 [I.14, (5-Butoxy-1H-indol-3-yl)-[4-(4-hydroxy-phenyl)-piperazin-1-yl]-methanone] was tested, and the inhibition at 10 µM was > 90%.
For O=C(c1cn(Cc2ccccc2)c2ccccc12)N1CCN(c2ccc(O)cc2)CC1 [I.15, (1-Benzyl-1H-indol-3-yl)-[4-(4-hydroxy-phenyl)-piperazin-1-yl]-methanone], the inhibition at 10 µM was > 90%.
CC(=O)N[C@@H](Cc1ccccc1)C(=O)N1CCN(c2ccc(O)cc2)CC1 [I.16, N-{(1S)-1-Benzyl-2-[4-(4-hydroxy-phenyl)-piperazin-1-yl]-2-oxoethyl}-acetamide] was tested, and the inhibition at 10 µM was > 90%.
For O=C(C(=O)N1CCN(c2ccc(O)cc2)CC1)c1ccccc1 [I.17, 1-[4-(4-hydroxyphenyl)-piperazin-1-yl]-2-phenyl-ethane-1,2-dione], the inhibition at 10 µM was > 90%.
CCCCn1cc(C(=O)N2CCN(c3ccc(O)cc3)CC2)c2ccccc21 [I.18, (1-Butyl-1H-indol-3-yl)-[4-(4-hydroxy-phenyl)-piperazin-1-yl]-methanone] was tested, and the inhibition at 10 µM was > 90%.
For CC(=O)N[C@@H](C(=O)N1CCN(c2ccc(O)cc2)CC1)c1ccccc1 [I.19, N-{(1R)-2-[4-(4-Hydroxy-phenyl)-piperazin-1-yl]-2-oxo-1-phenyl-ethyl}acet-amide], the inhibition at 10 µM was > 90%.
With O=C(c1cc(-c2ccccc2)nc(-c2ccccc2)c1)N1CCN(c2ccc(O)cc2)CC1 [I.20, (2,6-diphenyl-4-pyridyl)-[4-(4-hydroxyphenyl)piperazin-1-yl]methanone] the inhibition at 10 µM was > 90%.
In the case of O=C(c1cc2ccccc2c2ccccc12)N1CCN(c2ccc(O)cc2)CC1 [I.22, [4-(4-Hydroxy-phenyl)-piperazin-1-yl]-phenanthren-9-yl-methanone], the inhibition at 10 µM is reported as > 90%.
For O=C(CCc1ccc2ccccc2c1)N1CCN(c2ccc(O)cc2)CC1 [I.23, 1-[4-(4-Hydroxy-phenyl)-piperazin-1-yl]-3-naphthalen-2-yl-propan-1-one], the inhibition at 10 µM was > 90%.
O=C(c1cnc2ccccc2c1)N1CCN(c2ccc(O)cc2)CC1 [I.24, [4-(4-Hydroxy-phenyl)-piperazin-1-yl]-quinolin-3-yl-methanone] was tested, and the inhibition at 10 µM was > 90%.
With O=C(c1cccc2cc3ccccc3cc12)N1CCN(c2ccc(O)cc2)CC1 [I.25, Anthracen-1-yl-[4-(4-hydroxy-phenyl)-piperazin-1-yl]-methanone] the inhibition at 10 µM was > 90%.
With O=C(c1cccc2c1ccn2Cc1ccccc1)N1CCN(c2ccc(O)cc2)CC1 [I.26, (1-benzylindol-4-yl)-[4-(4-hydroxyphenyl)piperazin-1-yl]methanone] the inhibition at 10 µM was > 90%.
With O=C(c1cc(-c2ccccc2)cc(-c2ccccc2)c1)N1CCN(c2ccc(O)cc2)CC1 [I.27, (3,5-Diphenyl-phenyl)-[4-(4-hydroxy-phenyl)-piperazin-1-yl]methanone] the inhibition at 10 µM was > 90%.
O=C(c1cccn2ccnc12)N1CCN(c2ccc(O)cc2)CC1 [I.29, [4-(4-Hydroxy-phenyl)-piperazin-1-yl]-imidazo[1,2-a]124yridine-8-yl-methanone] was tested, and the inhibition at 10 µM was > 90%.
In the case of O=C(c1cccc2[nH]ccc12)N1CCN(c2ccc(O)cc2)CC1 [I.30, [4-(4-Hydroxy-phenyl)-piperazin-1-yl]-(1H-indol-4-yl)-methanone], the inhibition at 10 µM is reported as > 90%.
With O=C(c1cccn2c(-c3ccc(C(F)(F)F)cc3)cnc12)N1CCN(c2ccc(O)cc2)CC1 [I.31, [4-(4-hydroxy-phenyl)-piperazin-1-yl]-[3-(4-trifluoromethyl-phenyl)-imidazo[1,2-a]pyridin-8-yl]-methanone] the inhibition at 10 µM was > 90%.
In the case of O=C(O)c1cc(N2CCN(C(=O)Cc3ccccc3)CC2)ccc1O [I.32, 2-hydroxy-5-(4-phenylacetyl-piperazin-1-yl)-benzoic acid], the inhibition at 10 µM is reported as 70 to 89%.
In the case of O=C(c1cc(-c2ccccc2)nc(N2CCOCC2)c1)N1CCN(c2ccc(O)cc2)CC1 [I.33, [4-(4-Hydroxy-phenyl)-piperazin-1-yl]-(2-morpholino-6-phenyl-4-pyridyl)-methanone], the inhibition at 10 µM is reported as > 90%.
O=C(c1ccnc(-c2ccccc2)c1)N1CCN(c2ccc(O)cc2)CC1 [I.34, [4-(4-Hydroxy-phenyl)-piperazin-1-yl]-(2-phenyl-4-pyridyl)-methanone] was tested, and the inhibition at 10 µM was > 90%.
With O=C(c1ccnc(N2CCOCC2)c1)N1CCN(c2ccc(O)cc2)CC1 [I.35, [4-(4-Hydroxy-phenyl)-piperazin-1-yl]-(2-morpholino-4-pyridyl)-methanone] the inhibition at 10 µM was > 90%.
For O=C(c1cc(Cl)nc(N2CCOCC2)c1)N1CCN(c2ccc(O)cc2)CC1 [I.36], the inhibition at 10 µM was > 90%.
For N#Cc1cc(N2CCN(C(=O)c3cc(-c4ccccc4)nc(-c4ccccc4)c3)CC2)ccc1O [I.37, 5-[4-(2,6-diphenylpyridine-4-carbonyl)piperazin-1-yl]-2-hydroxy-benzonitrile], the inhibition at 10 µM was 50 to 69%.
With O=C(O)c1cc(N2CCN(C(=O)c3cc(-c4ccccc4)nc(-c4ccccc4)c3)CC2)ccc1O [I.38, 5-[4-(2,6-Diphenyl-pyridine-4-carbonyl)-piperazin-1-yl]-2-hydroxy-benzoic acid] the inhibition at 10 µM was > 90%.
In the case of O=C(c1ccc(Cl)s1)N1CCN(c2ccc(O)cn2)CC1 [I.76, (5-Chloro-thiophen-2-yl)-[4-(5-hydroxy-pyridin-2-yl)-piperazin-1-yl]-methanone], the inhibition at 10 µM is reported as > 90%.
In the case of O=C(/C=C/c1ccc([N+](=O)[O-])cc1)N1CCN(c2ccc(O)cn2)CC1 [I.77, (E)-1-[4-(5-Hydroxy-pyridin-2-yl)-piperazin-1-yl]-3-(4-nitro-phenyl)-propenone], the inhibition at 10 µM is reported as > 90%.
In the case of O=C(/C=C/c1ccc(Cl)cc1)N1CCN(c2ccc(O)cn2)CC1 [I.78, (E)-3-(4-Chlorophenyl)-1-[4-(5-hydroxy-pyridin-2-yl)-piperazin-1-yl]-propenone], the inhibition at 10 µM is reported as > 90%.
For Cc1cn(-c2cc(C(=O)N3CCN(c4ccc(O)cn4)CC3)cc(C(F)(F)F)c2)cn1 [I.81, [4-(5-Hydroxy-pyridin-2-yl)-piperazin-1-yl]-[3-(4-methyl-imidazol-1-yl)-5-trifluoro-methylphenyl]-methanone], the inhibition at 10 µM was > 90%.
For Cc1ccc(C(=O)N2CCN(c3ccc(O)cn3)CC2)cc1Nc1nccc(-c2cccnc2)n1 [I.85, [4-(5-hydroxy-pyridin-2-yl)-piperazin-1-yl]-[4-methyl-3-(4-pyridin-3-yl-pyrimidin-2-ylamino)-phenyl]-methanone], the inhibition at 10 µM was > 90%.
O=C(c1nc2ccccc2[nH]1)N1CCN(c2ccc(O)cn2)CC1 [I.86, (1H-Benzo-imidazol-2-yl)-[4-(5-hydroxy-pyridin-2-yl)-piperazin-1-yl]-methanone] was tested, and the inhibition at 10 µM was > 90%.
In the case of O=C(c1ccc(Br)s1)N1CCN(c2ccc(O)cn2)CC1 [I.87, (5-Bromo-thiophen-2-yl)-[4-(5-hydroxy-pyridin-2-yl)-piperazin-1-yl]-methanone], the inhibition at 10 µM is reported as > 90%.
In the case of CN(CC(=O)N1CCN(c2ccc(O)cn2)CC1)S(=O)(=O)c1cccc2cccnc12 [I.89, quinoline-8-sulfonic acid {2-[4-(5-hydroxypyridin-2-yl)-piperazin-1-yl]-2-oxo-ethyl}-methylamide], the inhibition at 10 µM is reported as > 90%.
In the case of CC(C)Cc1ccc(CCC(=O)N2CCN(c3ccc(O)cn3)CC2)cc1 [I.90, 1-[4-(5-Hydroxy-pyridin-2-yl)-piperazin-1-yl]-3-(4-isobutyl-phenyl)-propan-1-one], the inhibition at 10 µM is reported as > 90%.
